Results from US20100010024A1, “USE OF1,4-DIARYL-DIHYDROPYRIMIDINE-2-ON DERIVATIVES FOR TREATING PULMONARY ARTERIAL HYPERTENSION” (Bayer Healthcare AG, priority 2006, published 2010).

Molecular target: T1, human neutrophil elastase (HNE) (Homo sapiens, UniProt P08246)
T1 construct: purchased Serva, Heidelberg
T1 sequence (P08246 30-267): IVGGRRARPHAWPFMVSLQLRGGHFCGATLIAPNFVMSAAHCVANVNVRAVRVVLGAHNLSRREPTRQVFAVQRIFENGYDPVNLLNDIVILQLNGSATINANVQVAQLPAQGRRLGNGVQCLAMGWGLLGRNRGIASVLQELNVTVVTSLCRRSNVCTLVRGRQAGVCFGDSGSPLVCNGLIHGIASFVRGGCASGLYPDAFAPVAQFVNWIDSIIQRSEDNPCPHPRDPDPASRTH
Experiment: In vitro HNE inhibition assay
Format: biochemical
Conditions: 80 pM HNE, 20 μM MeOSuc-Ala-Ala-Pro-Val-AMC, 37° C., 2 hours, fluorescence
Experimental: B-1. In vitro HNE Inhibition Assay
The potency of the compounds of the invention is ascertained in an in vitro inhibition assay. The HNE-mediated amidolytic cleavage of a suitable peptide substrate leads in this connection to an increase in the fluorescent light. The signal intensity of the fluorescent light is directly proportional to the enzyme activity.
Enzyme (80 pM HNE; from Serva, Heidelberg) and substrate (20 μM MeOSuc-Ala-Ala-Pro-Val-AMC; from Bachem, Weil am Rhein) are incubated in an assay volume of in total 50 μl of assay buffer (0.1 M HEPES pH 7.4, 0.5 M NaCl, 0.1% w/v BSA, 1% v/v DMSO) in a 384-well microtiter plate in the presence and absence of the test substance at 37° C. for 2 hours. […] The IC50 values are determined by plotting the intensity of the fluorescent light against the active substance concentration.

SMILES | IC50
CC1=C(C(=O)C2CCC2)[C@@H](c2ccc(C#N)cc2)NC(=O)N1c1cccc(C(F)(F)F)c1 [Example 3, 4-{(4R)-5-(Cyclobutylcarbonyl)-6-methyl-2-oxo-1-[3-(trifluoromethyl)phenyl]-1,2,3,4-tetrahydropyrimidin-4-yl}benzonitrile] | 14.8 nM
CC(=O)C1=C(C)N(c2ccc(F)c(C(F)(F)F)c2)C(=O)N[C@@H]1c1ccc(C#N)cc1 [Example 7, 4-{(4R)-5-Acetyl-1-[4-fluoro-3-(trifluoromethyl)phenyl]-6-methyl-2-oxo-1,2,3,4-tetrahydropyrimidin-4-yl}benzonitrile] | 5.2 nM
CC1=C(C(=O)C2CCC2)[C@@H](c2ccc(C#N)cc2)N(CC(=O)O)C(=O)N1c1cccc(C(F)(F)F)c1 [Example 8, [(6R)-6-(4-Cyanophenyl)-5-(cyclobutylcarbonyl)-4-methyl-2-oxo-3-[3-(trifluoromethyl)phenyl]-3,6-dihydropyrimidin-1(2H)-yl]acetic acid] | 4.3 nM
CC1=C(C(=O)C(C)C)[C@@H](c2ccc(C#N)cc2)N(CC(=O)O)C(=O)N1c1cccc(C(F)(F)F)c1 [Example 16, [(6R)-6-(4-Cyanophenyl)-5-isobutyryl-4-methyl-2-oxo-3-[3-(trifluoromethyl)phenyl]-3,6-dihydropyrimidin-1(2H)-yl]acetic acid] | 2.9 nM
CC(=O)C1=C(C)N(c2cccc(C(F)(F)F)c2)C(=O)N(Cc2cccc(C(=O)O)c2)[C@@H]1c1ccc(C#N)cc1 [Example 17, 3-{[(6R)-5-Acetyl-6-(4-cyanophenyl)-4-methyl-2-oxo-3-[3-(trifluoromethyl)phenyl]-3,6-dihydropyrimidin-1(2H)-yl]methyl}benzoic acid] | 3.9 nM
CC(=O)C1=C(C)N(c2cccc(C(F)(F)F)c2)C(=O)N(Cc2ccc(C(=O)O)cc2)[C@@H]1c1ccc(C#N)cc1 [Example 18, 4-{[(6R)-5-Acetyl-6-(4-cyanophenyl)-4-methyl-2-oxo-3-[3-(trifluoromethyl)phenyl]-3,6-dihydropyrimidin-1(2H)-yl]methyl}benzoic acid] | 2.9 nM
CC(=O)C1=C(C)N(c2cccc(C(F)(F)F)c2)C(=O)N(CC(N)=O)[C@@H]1c1ccc(C#N)cc1 [Example 21, 2-[(6R)-5-Acetyl-6-(4-cyanophenyl)-4-methyl-2-oxo-3-[3-(trifluoromethyl)phenyl]-3,6-dihydropyrimidine-1(2H)-yl]acetamide] | 5.5 nM
CC1=C(C(=O)OCCO)[C@@H](c2ccc(C#N)cc2)N(CC(N)=O)C(=O)N1c1cccc(C(F)(F)F)c1 [Example 29] | 1.4 nM
CCOC(=O)C1=C(C)N(c2cccc(C(F)(F)F)c2)C(=O)N(CC(=O)N(C)C)[C@@H]1c1ccc(C#N)cc1 [Example 30, Ethyl(4R)-4-(4-cyanophenyl)-3-[2-(dimethylamino)-2-oxoethyl]-6-methyl-2-oxo-1-[3-(trifluoromethyl)phenyl]-1,2,3,4-tetrahydropyrimidine-5-carboxylate] | 0.4 nM
